Patent US20070212360A1, “Modulation of mitochondrial oxygen consumption for therapeutic purposes” (priority 2006, published 2007)

Columns and labels:
[1] = system: HIF1 responsive luciferase reporter in RKO cells; assay: 5×HRE-luciferase reporter assay in vitro; assay type: cell-based, human; details: 0.5% O2 24 h, increasing concentrations, dose dependent
Description: FIG. 8. Increasing oxygen consumption by inhibition of PDK activity increases tumor hypoxia. (a) Luciferase activity of wildtype and HIF1α knockdown RKO cells stably transfected with a HIF1 responsive luciferase reporter gene. Cells were exposed to 0.5% O2 for 24 hours in triplicate. Luminescence is normalized to normoxic HIF wildtype cells. (b) Luciferase activity of wildtype RKO HIF1 reporter cells exposed to 0.5% O2 for 24 hours in the presence of increasing concentrations of echinomycin. Data are normalized to the increase in signal observed in the absence of drug. (c) Bioluminescent imaging in vivo. Images show a representative animal bearing an RKO reporter tumor on the left flank and an RKOShHIF1α reporter tumor on the right flank as a function of time after ip injection of 50 mg/kg DCA. […] (d) Quantification of in vivo bioluminescence. […] The data represent the mean of three independent experiments, each comprising 5 RKO and 5 RKOShHIF1α reporter tumors.
Luciferase reporter assay. […] Cells were exposed to 0.5% O2 for 24 hr, and luciferase activity was measured in triplicate using a luciferase reporter gene assay kit (Roche) and a Monolight 2010 luminometer (Analytical Luminescence Laboratory). […]

[2] = system: RKO and RKOShHIF1α tumors; assay: Tumor hypoxia by pimonidazole immunofluorescence; assay type: in vivo, mouse
Description: FIG. 9. Increasing oxygen consumption by inhibition of HIF increases tumor hypoxia. (a-d) Pimonidazole staining of tumor sections from RKO (a,b) and RKOShHIF1α (c,d) tumors 24 h after treatment with PBS (a,c) or echinomycin (b,d). The tumor section is outlined in white, pimonidazole staining is shown in green, and the necrotic areas and cutting artifacts are shown in gray. (e) The mean hypoxic fraction of RKO and RKOShHIF1α tumors 24 h after treatment with PBS or echinomycin (n=4-5 tumors per group). Error bars represent the standard error of the mean. (*) indicates a significant difference (p<0.05).
Detection of tumor hypoxia by pimonidazole immunofluorescence. Mice bearing 100-300 mm^3 subcutaneous RKO and RKOshHIF tumors on either flank were treated with 0.12 mg/kg echinomycin ip or saline control, and 24 h later they were injected with the hypoxia marker drug pimonidazole (60 mg/kg ip) (Millipore, Temecula, Calif.). Three hours after pimonidazole injection, tumors were excised, and frozen in Tissue-Tek O.C.T. compound. Frozen sections (10 μm thick) from the center regions of tumors were cut, air dried, and fixed for 15 min in acetone at 4 C. Slides were then air dried, rehydrated in PBS, and blocked for 30 min in 4% FBS, 5% non-fat milk, and 0.1% Triton X-100 in PBS. Slides were incubated for 1 hr at room temperature with a FITC-conjugated monoclonal antibody against pimonidazole (Millipore) diluted 1:20 in blocking solution. Slides were washed, counterstained with 50 nM propidium iodide (PI), and mounted under a coverslip in Vectashield medium (Vector Labs, Burlingame, Calif.).
FITC and Pi fluorescent signals for entire tumor sections (one section per tumor) were acquired using a 4× objective lens on a Nikon Eclipse E800 microscope equipped with a motorized scanning stage, a 12-bit QImaging camera (OImaging, Burnaby, Canada), and Bioquant imaging software (Bioquant, Nashville, Tenn.). Acquisition parameters were held constant for all samples. ImageJ software (NIH, Bethesda, Md.) was used to analyze the resulting tiled images. […]

[3] = 24 h after 0.12 mg/kg echinomycin ip vs vehicle

With `CS[C@H]1SC[C@H]2C(=O)N(C)[C@@H](C(C)C)C(=O)OC[C@@H](NC(=O)c3cnc4ccccc4n3)C(=O)N[C@@H](C)C(=O)N(C)[C@@H]1C(=O)N(C)[C@@H](C(C)C)C(=O)OC[C@@H](NC(=O)c1cnc3ccccc3n1)C(=O)N[C@@H](C)C(=O)N2C` [echinomycin] the “hypoxic induction of luciferase in RKO reporter cells in vitro” value [1] was “completely inhibited”, the “extent of hypoxia in RKOShHIF1α tumors (pimonidazole)” value [2, 3] was “no significant effect” and the “hypoxic fraction of RKO tumors (pimonidazole)” value [2, 3] was “increase in the hypoxic fraction”. For the same compound, the “extent of necrosis in tumor sections” value ([2]; four treatment groups (RKO, RKOShHIF1α; echinomycin or vehicle)) was “no difference”.
